Key:
[1] = test system: cancer cells; assay: Cytotoxic activity of αβ T processed cells cultured with a glycolytic inhibitor; assay type: cell-based, human; settings: cells prepared with oxamate (2 mM) or bromo pyruvate (10 μM); vs cells not treated with 2DG
Method: (§1) The cytotoxic activity test by fluorescent staining was performed by using Terascan VPC2 (Minerva Tech K.K.). Cancer cell line K562 (leukemia cell line), Daudi (Burkitt's lymphoma cell line), and HOS (osteosarcoma cell line), and DLD1 (colon cancer cell line) were labeled for 30 minutes with 2.55 to 5 μg/mL of fluorescent dye Cellstein R-Calcein-AM solution (DOJINDO LABORATORIES). The labeled cancer cells and the αβ T processed cells were mixed at a ratio of 1:25, and the mixed cells were incubated for 2 to 4 hours in RPMI 1640 and 10% FBS (in the absence of IL-2). The cytotoxic activity was calculated by using changes in the fluorescence intensity of the cancer cells co-cultured with the αβ T processed cells as an index, assuming the fluorescence decay rate when treated with 1% NP40 (surfactant) as 100% (FIG. 2C).
By using the method described in 3.2. of Example 3, the cytotoxic activity against each of cancer cells, by the αβ T processed cells treated with oxamate (2 mM) or bromo pyruvate (10 μM), which is a glycolytic inhibitor, was examined.

[2] = test system: cancer cells; assay: Suppression of cytotoxic activity of 2DG-treated αβ T processed cells by D-mannose; assay type: cell-based, human; settings: 2 mM D-mannose or L-mannose added to the culture with 2 mM 2DG
Method: as §1
Therefore, it was investigated whether or not the cytotoxic activity ability was suppressed by adding D-mannose to the processing of αβ T cells treated with 2DG.
In the preparation of Example 1, αβ T processed cells were prepared with the addition of 2 mM of D-mannose (Sigma-Aldrich Co. LLC) or L-mannose (Tokyo Chemical Industry Co., Ltd.), and the prepared αβ T processed cells were subjected to the measurement of cytotoxic activity by the method described in item 3.2.

[3] = test system: αβ T processed cells; assay: Intracellular perforin production in αβ T processed cells (flow cytometry, MFI); assay type: cell-based, human; settings: 2 mM D-mannose or L-mannose added to the culture with 2 mM 2DG; for Intracellular granzyme B: data not shown
Method: Next, it was verified whether or not mannose inhibited the increase in the amount of intracellular perforin of the αβ T processed cells treated with 2DG. In the preparation of Example 1, αβ T processed cells were prepared with the addition of 2 mM of D-mannose (Sigma-Aldrich Co. LLC) or L-mannose (Tokyo Chemical Industry Co., Ltd.), the prepared cells were treated with IntraPrep Permeabilization Reagent (Beckman Coulter, Inc.), and the expression level of the intracellular perforin was determined by staining the cells with APC-labeled anti-perforin antibodies. The stained cells were subjected to measurement by using a flow cytometer FACS CantoII (BD Biosciences), and the data were analyzed by using Kaluza (Beckman Coulter, Inc.) software. The Mean Fluorescence Intensity (MFI) value is mean fluorescence intensity, and reflects the expression level.

[4] = test system: αβ T processed cells; assay: Cytokine production of αβ T processed cells (Bio-plex); assay type: cell-based, human; settings: culture supernatant after 24 hours in RPMI 1640 + 10% FCS without IL-2; 4 healthy donor samples; vs cont
Method: The cytokine production ability of the αβ T processed cells prepared in Example 1 was determined by using Bio-plex “human cytokine G1 27 plex panel” (Bio-Rad Laboratories, Inc.) (FIG. 2A). Specifically, the αβ T processed cells prepared in Example 1 were replaced in a medium containing RPMI 1640 and 10% FCS in the absence of IL-2, and cultured. The culture supernatant after 24 hours from the start of the culture was recovered, and subjected to measurement.

[5] = test system: αβ T processed cells; assay: Perforin and granzyme B in culture supernatant after PMA/ionomycin stimulation (ELISA); assay type: cell-based, human; settings: after PMA (5 ng/ml) and ionomycin (0.5 μg/ml) stimulation; 4 healthy donor samples; vs cont
Method: Furthermore, perforin and granzyme B in the culture supernatant after the degranulation due to the PMA (5 ng/ml) and ionomycin (0.5 μg/ml) stimulation were determined by using Human Perforin ELISA Kit and Human Granzyme B ELISA Kit (Abcam plc.), respectively (FIG. 2B).

[6] = test system: Daudi (Burkitt's lymphoma cell line); assay: In vitro cytotoxic activity against cultured cells (Calcein-AM, Terascan); assay type: cell-based, human; settings: cancer cells:αβ T processed cells 1:25, 2 to 4 hours; vs conventional method
Method: as §1

[7] = test system: Daudi cells; assay: Degranulation: CD107a exposure on CD8+ T cells in co-culture with cancer cells; assay type: cell-based, human; settings: co-culture with Daudi cells 25:1, 6 hours
From the text: (§2) In the αβ T processed cells treated with 2DG as described above, secretions of effector factors such as cytokines, perforin, and granzyme B were promoted, and the cytotoxic activity was enhanced. Since exposure of CD107a localized in an intracellular vesicle onto the cell surface serves as an index of degranulation for the release of an effector factor from a cytotoxic T cell or a NK cell, the exposure of CD107a onto the cell surface by co-culture with cancer cells having different cytotoxicity was detected.
(§3) In the presence of APC-labeled anti-CD107a antibodies (BioLegend, Inc.), the αβ T processed cells and cancer cells were mixed at a ratio of 25:1, and the mixed cells were cultured for 6 hours. After the washing of the cultured cells, the washed cells were stained with PE-labeled anti-CD8 antibodies (Beckman Coulter, Inc.). The cells thus stained were subjected to measurement by using a flow cytometer FACS CantoII (BD Biosciences), and the obtained data were analyzed by using Kaluza (Beckman Coulter, Inc.) software (FIG. 2D).

[8] = test system: K562 cells; assay: as above; assay type: cell-based, human; settings: co-culture with K562 cells 25:1, 6 hours
From the text: as §2, §3

[9] = test system: sugar chains of αβ T processed cells; assay: LC-MS mass spectrometry analysis of sugar chains on cell surface; assay type: cell-based, human; settings: summary of Table 1
From the text: From the αβ T processed cells, sugar chains were purified and labeled by using BlotGlyco (Sumitomo Bakelite Co., Ltd.), and then the purified and labeled sugar chains were subjected to LC-MS mass spectrometry analysis (FIG. 5A).

[10] = test system: galectin-3; assay: Galectin-3 binding ability of αβ T processed cells (flow cytometry); assay type: cell-based; settings: cells cultured with 0 to 4 mM of 2DG; recombinant galectin-3, 4° C., 30 minutes; vs cont
Method: The galectin-3 binding ability was detected with FITC-labeled anti-mouse IgG antibodies (Jackson ImmunoResearch Laboratories, Inc.). In this regard, as an experimental control of the galectin-3 binding, addition of 0.1 M of lactose (Sigma-Aldrich Co. LLC) for inhibiting the binding of galectin to sugar chains was performed. The measurement was performed by using a flow cytometer FACS CantoII (BD Biosciences), and the data were analyzed by using Kaluza (Beckman Coulter, Inc.) software.

[11] = test system: IL-2 receptor; assay: IL-2 receptor expression on αβ T processed cells (flow cytometry); assay type: cell-based, human; settings: cells cultured with 2DG and D-mannose
Method: It is known that the intracellular perforin and granzyme B in effector cells are induced and expressed by the stimulation from IL-2 receptor on a T cell. Therefore, the expression of the IL-2 receptor was confirmed. […] The obtained resuspension was passed through a cell strainer to remove aggregates. The obtained cells were incubated for 1 hour on ice, together with PE/Cy5-labeled anti-IL-2R antibodies (BioLegend, Inc.), and FITC-labeled anti-CD3 antibodies (Beckman Coulter, Inc.), and after the washing of the incubated cells, the measurement was performed by using a flow cytometer FACS Cantoll (BD Biosciences). The data were analyzed by using Kaluza (Beckman Coulter, Inc.) software.

## NC(=O)C(=O)O [oxamate]
[1]
  Cytotoxic activity against cancer cells: no enhancement of the cytotoxic activity was observed

## O=C[C@H](O)[C@H](O)[C@@H](O)[C@@H](O)CO [L-mannose]
[2]
  Cytotoxic activity of αβ T processed cells cultured with 2DG plus mannose: no influence on the cytotoxic activity of 2DG
[3]
  Intracellular perforin expression level (MFI): no influence
  Intracellular granzyme B: the results were also similar

## OCC1O[C@H](O)C[C@@H](O)[C@@H]1O (mixture of isomers) [2DG, 2-deoxy-d-glucose]
[4]
  Secretion of cytokines (IL-2, IFN-γ, TNFα): increased by 2DG treatment in 3 cases out of 4 cases
[5]
  Secretion of granzyme B: increased by 2DG treatment in 3 cases out of 4 cases
  Secretion of perforin: increased by 2DG treatment in 3 cases out of 4 cases
[6]
  Cytotoxic activity against Daudi: had not been increased
[7]
  Exposure of CD107a onto the cell surface (degranulation of CD8+ T cells): not promoted
[8]
  Exposure of CD107a onto the cell surface (degranulation of CD8+ T cells): promoted
[9]
  Effect of 2DG treatment on N-glycans (sugar chain analysis): abnormal increase of the mature branched N-glycan in which deoxyhexose had been introduced
[10]
  Galectin-3 binding ability: reduced in a dose-dependent manner

## O=C[C@@H](O)[C@@H](O)[C@H](O)[C@H](O)CO [D-mannose]
[2]
  Cytotoxic activity of αβ T processed cells cultured with 2DG plus mannose: reduced the effect of 2DG
[3]
  Intracellular perforin expression level (MFI): reduced the effect of 2DG
  Intracellular granzyme B: the results were also similar
[11]
  Expression of the IL-2 receptor on a cell surface: suppressed
